Measurements reported in ChEMBL document CHEMBL3112567, “Novel GlyT1 inhibitor chemotypes by scaffold hopping. Part 1: development of a potent and CNS penetrant [3.1.0]-based lead” (Bioorg Med Chem Lett, 2014).
Active and inactive are the calls of the source. The calls are words filed in the database; no cut-off is given here.

Experiments:
[1] = target: T1, Sodium- and chloride-dependent glycine transporter 1 (Homo sapiens, UniProt P48067); assay: Inhibition of GlyT1 (unknown origin) assessed as inhibition of [14C]glycine uptake
T1 sequence (P48067 whole entry): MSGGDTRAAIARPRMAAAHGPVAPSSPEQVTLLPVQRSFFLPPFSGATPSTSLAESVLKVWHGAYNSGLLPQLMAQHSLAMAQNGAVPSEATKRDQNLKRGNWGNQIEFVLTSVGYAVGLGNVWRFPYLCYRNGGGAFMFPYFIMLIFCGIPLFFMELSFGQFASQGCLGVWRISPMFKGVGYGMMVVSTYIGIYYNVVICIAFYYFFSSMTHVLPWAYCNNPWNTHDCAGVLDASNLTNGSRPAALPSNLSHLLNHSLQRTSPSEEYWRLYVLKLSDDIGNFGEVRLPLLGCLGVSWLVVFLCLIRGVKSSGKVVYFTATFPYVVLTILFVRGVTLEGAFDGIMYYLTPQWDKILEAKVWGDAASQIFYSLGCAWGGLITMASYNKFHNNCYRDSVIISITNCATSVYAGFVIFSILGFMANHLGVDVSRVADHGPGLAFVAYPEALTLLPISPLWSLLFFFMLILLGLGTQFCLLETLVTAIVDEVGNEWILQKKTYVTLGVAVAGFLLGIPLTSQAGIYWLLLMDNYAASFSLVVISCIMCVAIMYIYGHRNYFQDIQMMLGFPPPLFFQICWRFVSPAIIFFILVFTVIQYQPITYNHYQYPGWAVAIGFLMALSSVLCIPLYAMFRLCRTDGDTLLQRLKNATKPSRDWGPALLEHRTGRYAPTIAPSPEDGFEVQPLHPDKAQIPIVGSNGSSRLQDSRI

Cytochrome P450 1A2 = target: T2, Cytochrome P450 1A2 (Homo sapiens, UniProt P05177); assay: Inhibition of CYP1A2 (unknown origin); format: ADME
T2 sequence (P05177 whole entry): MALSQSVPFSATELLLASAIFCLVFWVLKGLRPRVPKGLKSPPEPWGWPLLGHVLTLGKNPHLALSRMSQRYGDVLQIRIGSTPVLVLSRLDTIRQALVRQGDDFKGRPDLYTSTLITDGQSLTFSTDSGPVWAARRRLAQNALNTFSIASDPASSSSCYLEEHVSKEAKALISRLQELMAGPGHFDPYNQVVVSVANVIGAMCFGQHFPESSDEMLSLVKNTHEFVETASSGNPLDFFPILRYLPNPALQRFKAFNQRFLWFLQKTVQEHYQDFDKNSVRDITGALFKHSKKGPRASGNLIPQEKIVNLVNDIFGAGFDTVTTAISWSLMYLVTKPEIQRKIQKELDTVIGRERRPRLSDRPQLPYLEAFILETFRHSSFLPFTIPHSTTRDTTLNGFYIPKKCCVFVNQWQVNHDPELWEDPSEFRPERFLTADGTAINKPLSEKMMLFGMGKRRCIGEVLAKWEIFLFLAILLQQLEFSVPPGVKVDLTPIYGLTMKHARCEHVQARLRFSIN

Cytochrome P450 2D6 = Cytochrome P450 2D6 (Homo sapiens, UniProt P10635); assay: Inhibition of CYP2D6 (unknown origin); format: ADME
Cytochrome P450 3A4 = Cytochrome P450 3A4 (Homo sapiens, UniProt P08684); assay: Inhibition of CYP3A4 (unknown origin); format: ADME
[2] = Partitioning coefficient, ratio of drug uptake from rat brain to plasma at 10 mg/kg, po; format: ADME, organism-based; parameters: dose 10 mg/kg, route oral
Cytochrome P450 2C9 = Cytochrome P450 2C9 (Homo sapiens, UniProt P11712); assay: Inhibition of CYP2C9 (unknown origin); format: ADME
[3] = (§1) Fraction unbound in human plasma; format: ADME, cell-free
[4] = target: T3, Sodium- and chloride-dependent glycine transporter 2 (Homo sapiens, UniProt Q9Y345); assay: Inhibition of GlyT2 (unknown origin)
T3 sequence (Q9Y345 whole entry): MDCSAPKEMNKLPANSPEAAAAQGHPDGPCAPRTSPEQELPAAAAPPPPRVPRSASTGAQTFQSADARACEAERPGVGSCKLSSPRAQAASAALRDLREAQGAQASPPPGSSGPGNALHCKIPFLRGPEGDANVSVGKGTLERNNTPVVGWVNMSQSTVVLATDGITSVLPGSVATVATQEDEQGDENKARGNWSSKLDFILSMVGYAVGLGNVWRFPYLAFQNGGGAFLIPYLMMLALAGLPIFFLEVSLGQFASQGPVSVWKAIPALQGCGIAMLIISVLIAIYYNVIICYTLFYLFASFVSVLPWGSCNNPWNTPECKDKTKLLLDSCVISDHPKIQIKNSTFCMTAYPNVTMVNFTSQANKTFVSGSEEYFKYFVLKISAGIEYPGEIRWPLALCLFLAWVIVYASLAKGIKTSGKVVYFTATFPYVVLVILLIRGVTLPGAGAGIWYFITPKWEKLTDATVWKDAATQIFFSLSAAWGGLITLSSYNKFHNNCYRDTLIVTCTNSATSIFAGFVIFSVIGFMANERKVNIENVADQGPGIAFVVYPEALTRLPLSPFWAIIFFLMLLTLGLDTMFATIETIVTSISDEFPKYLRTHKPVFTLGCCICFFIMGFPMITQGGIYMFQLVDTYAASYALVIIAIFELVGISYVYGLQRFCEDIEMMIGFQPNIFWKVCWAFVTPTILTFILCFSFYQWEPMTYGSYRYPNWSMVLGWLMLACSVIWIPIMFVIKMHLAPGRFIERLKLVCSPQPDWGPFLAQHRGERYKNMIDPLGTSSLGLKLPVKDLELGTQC

Plasma [5] = assay: as §1; format: ADME, cell-free
Plasma [6] = assay: AUC (0 to 6 hrs) in rat plasma at 10 mg/kg, sc; format: ADME, organism-based; parameters: time < 6 hr, dose 10 mg/kg, route subcutaneous; details: in vivo
Rattus norvegicus [7] = assay: Antischizophrenic activity in rat schizophrenia model assessed as inhibition of […] to […] dB intensity-induced prepulse at 30 mg/kg, po; format: functional, organism-based; parameters: dose 30 mg/kg
Plasma [8] = assay: Metabolic stability in rat plasma after 4 hrs; format: ADME, cell-free
Plasma [9] = assay: AUC (0 to 6 hrs) in rat plasma at 10 mg/kg, po; format: ADME, organism-based; parameters: time < 6 hr, dose 10 mg/kg, route oral; details: in vivo
[10] = Half life in rat at 0.5 mg/kg, iv; format: ADME, organism-based; parameters: dose 0.5 mg/kg, route intravenous; details: in vivo
Plasma [11] = assay: Fraction unbound in rat plasma; format: ADME, cell-free
[12] = Partitioning coefficient, ratio of drug uptake from rat brain to plasma at 10 mg/kg, sc; format: ADME, organism-based; parameters: dose 10 mg/kg, route subcutaneous
[13] = AUC (0 to 6 hrs) in rat brain at 10 mg/kg, po; format: ADME, organism-based; parameters: time < 6 hr, dose 10 mg/kg, route oral
[14] = Clearance in rat at 0.5 mg/kg, iv; format: ADME, organism-based; parameters: dose 0.5 mg/kg, route intravenous; details: in vivo
[15] = AUC (0 to 6 hrs) in rat brain at 10 mg/kg, sc; format: ADME, organism-based; parameters: time < 6 hr, dose 10 mg/kg, route subcutaneous
Rattus norvegicus [16] = assay: Toxicity in rat schizophrenia model assessed as effect on basal startle amplitude at 30 mg/kg, po; format: organism-based; parameters: dose 30 mg/kg, route oral; details: in vivo
[17] = target: T4, Sodium- and chloride-dependent glycine transporter 1 (Homo sapiens) (UniProt P48067); assay: Competitive inhibition of GlyT1 (unknown origin) at 40 nM by Eadie-Hofstee plot analysis in presence of [14C]-glycine
T4 sequence (whole entry): T1 sequence (P48067 whole entry)

Cytochrome P450 3A4, sequence (P08684 whole entry): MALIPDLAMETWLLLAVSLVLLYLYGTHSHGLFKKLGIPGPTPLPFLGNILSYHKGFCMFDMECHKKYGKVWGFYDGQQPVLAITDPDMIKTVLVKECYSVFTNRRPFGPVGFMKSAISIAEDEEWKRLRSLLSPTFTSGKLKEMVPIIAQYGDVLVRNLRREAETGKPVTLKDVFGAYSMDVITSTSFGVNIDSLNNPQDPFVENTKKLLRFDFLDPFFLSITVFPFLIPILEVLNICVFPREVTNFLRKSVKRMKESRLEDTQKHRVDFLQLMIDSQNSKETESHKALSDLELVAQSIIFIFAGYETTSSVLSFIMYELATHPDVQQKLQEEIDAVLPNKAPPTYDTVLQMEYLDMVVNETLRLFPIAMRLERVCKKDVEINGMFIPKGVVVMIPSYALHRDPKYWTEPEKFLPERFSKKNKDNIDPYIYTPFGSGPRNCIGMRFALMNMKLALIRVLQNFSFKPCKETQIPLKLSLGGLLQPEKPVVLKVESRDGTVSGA
Cytochrome P450 2C9, sequence (P11712 whole entry): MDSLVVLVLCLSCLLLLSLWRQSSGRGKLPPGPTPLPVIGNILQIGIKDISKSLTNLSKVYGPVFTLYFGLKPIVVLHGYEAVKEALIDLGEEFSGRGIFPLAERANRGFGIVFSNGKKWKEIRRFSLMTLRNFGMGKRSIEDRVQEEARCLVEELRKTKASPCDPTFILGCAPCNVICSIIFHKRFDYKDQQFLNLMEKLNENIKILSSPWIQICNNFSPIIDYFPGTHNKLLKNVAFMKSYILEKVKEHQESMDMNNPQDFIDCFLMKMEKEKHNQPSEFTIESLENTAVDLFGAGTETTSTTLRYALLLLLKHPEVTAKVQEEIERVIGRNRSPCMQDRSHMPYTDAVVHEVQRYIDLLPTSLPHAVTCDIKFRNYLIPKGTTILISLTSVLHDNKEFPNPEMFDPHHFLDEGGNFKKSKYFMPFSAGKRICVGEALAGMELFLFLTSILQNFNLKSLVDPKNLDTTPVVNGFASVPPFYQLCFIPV
Cytochrome P450 2D6, sequence (P10635 whole entry): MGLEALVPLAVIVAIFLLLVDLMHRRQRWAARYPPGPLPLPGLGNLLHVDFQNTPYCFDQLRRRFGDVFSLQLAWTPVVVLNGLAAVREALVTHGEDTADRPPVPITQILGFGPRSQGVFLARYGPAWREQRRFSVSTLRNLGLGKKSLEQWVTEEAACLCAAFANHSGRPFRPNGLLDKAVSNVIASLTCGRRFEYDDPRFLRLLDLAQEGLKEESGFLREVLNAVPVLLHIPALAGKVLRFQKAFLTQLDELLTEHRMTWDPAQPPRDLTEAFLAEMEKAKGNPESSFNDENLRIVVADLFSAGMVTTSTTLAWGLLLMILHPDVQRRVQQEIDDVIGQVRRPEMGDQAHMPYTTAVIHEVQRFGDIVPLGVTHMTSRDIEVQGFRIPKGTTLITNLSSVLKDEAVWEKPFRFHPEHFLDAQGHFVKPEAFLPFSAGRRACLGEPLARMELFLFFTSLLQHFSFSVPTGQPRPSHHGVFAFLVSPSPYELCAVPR

Cn1cnc(S(=O)(=O)N2C[C@@H]3[C@H](C2)[C@@]3(CNC(=O)c2ccc(Cl)cc2Cl)c2ccccn2)c1
IC50 [1]: 0.247 µM
IC50 (Cytochrome P450 1A2): > 30 µM
IC50 (Cytochrome P450 2D6): > 30 µM
IC50 (Cytochrome P450 3A4): > 30 µM
Kp ([2]; brain): 1.1
IC50 (Cytochrome P450 2C9): > 30 µM
fraction unbound [3]: 0.14

O=C(NC[C@]1(CC2CC2)[C@@H]2CN(S(=O)(=O)c3cccnc3)C[C@@H]21)c1ccc(Cl)cc1Cl
IC50 [1]: 0.89 µM
IC50 [4]: > 30 µM

Cn1cnc(S(=O)(=O)N2C[C@@H]3[C@H](C2)[C@@]3(CNC(=O)c2ccccc2C(F)(F)F)c2ccccn2)c1
IC50 [1]: 0.185 µM
IC50 (Cytochrome P450 1A2): > 30 µM
IC50 (Cytochrome P450 2D6): > 30 µM
IC50 (Cytochrome P450 3A4): > 30 µM
IC50 (Cytochrome P450 2C9): > 30 µM
fraction unbound [3]: 0.076

Cn1cnc(S(=O)(=O)N2C[C@@H]3[C@H](C2)[C@@]3(CNC(=O)c2ccc(Cl)c(Cl)c2)CC2CC2)c1
IC50 [1]: 0.082 µM
Kp ([2]; brain): 0.3
Fu (Plasma [5]): 2%

CCCS(=O)(=O)N1C[C@@H]2[C@H](C1)[C@@]2(CNC(=O)c1ccc(Cl)cc1Cl)CC1CC1
IC50 [1]: 0.36 µM
IC50 [4]: > 30 µM

Cn1cnc(S(=O)(=O)N2C[C@@H]3[C@H](C2)[C@@]3(CNC(=O)c2ccccc2Cl)CC2CC2)c1
Kp ([2]; brain and plasma, read-out: Kp): 0.4
fraction unbound [3]: 0.03

Cn1cnc(S(=O)(=O)N2C[C@@H]3[C@H](C2)[C@@]3(CNC(=O)c2cc(Cl)cc(Cl)c2)CC2CC2)c1
IC50 [1]: 0.1 µM
Kp ([2]; brain): 0.3
Fu (Plasma [5]): 2%

CCCCS(=O)(=O)N1C[C@@H]2[C@H](C1)[C@@]2(CNC(=O)c1ccc(Cl)cc1Cl)CC1CC1
IC50 [1]: 5.5 µM
IC50 [4]: > 30 µM

CC(C)S(=O)(=O)N1C[C@@H]2[C@H](C1)[C@@]2(CNC(=O)c1ccc(Cl)cc1Cl)CC1CC1
IC50 [1]: 3.4 µM
IC50 [4]: > 30 µM

Cn1cnc(S(=O)(=O)N2C[C@@H]3[C@H](C2)[C@@]3(CNC(=O)c2ccc(Cl)cc2Cl)CC2CC2)c1
Kp ([2]; brain and plasma, read-out: Kp): 0.3
fraction unbound [3]: 0.05

O=C(NC[C@]1(CC2CC2)[C@@H]2CN(S(=O)(=O)c3ccccc3F)C[C@@H]21)c1ccc(Cl)cc1Cl
IC50 [1]: > 10 µM
IC50 [4]: > 30 µM

Cn1cnc(S(=O)(=O)N2C[C@@H]3[C@H](C2)[C@@]3(CNC(=O)c2ccccc2C(F)(F)F)CC2CC2)c1
IC50 [1]: 0.005 µM
AUC (Plasma [6]): 976 nM·h
inhibition (Rattus norvegicus [7]): Active
IC50 (Cytochrome P450 1A2): > 30 µM
IC50 (Cytochrome P450 2D6): > 30 µM
Stability (Plasma [8]): Stable
AUC (Plasma [9]): 1156 nM·h
half-life [10]: 14.5 min
Kp ([2]; brain): 0.83
IC50 (Cytochrome P450 2C9): > 30 µM
Fu (Plasma [5]): 7%
Fu (Plasma [11]): 44.8%
Kp [12]: 0.44
AUC(0-t) at 6 h [13]: 956 nM·h
clearance [14]: 1.86 L/h/kg
AUC(0-t) at 6 h [15]: 431 nM·h
Activity (Rattus norvegicus [16]): Non-toxic

O=C(NC[C@]1(CC2CC2)[C@@H]2CN(S(=O)(=O)c3ccccn3)C[C@@H]21)c1ccc(Cl)cc1Cl
IC50 [1]: 1 µM
IC50 [4]: > 30 µM

Cn1cnc(S(=O)(=O)N2C[C@@H]3[C@H](C2)[C@@]3(CNC(=O)c2ccc(Cl)cc2)CC2CC2)c1
IC50 [1]: 0.032 µM
Kp ([2]; brain): 0.3
Fu (Plasma [5]): 3%

Cn1cnc(S(=O)(=O)N2C[C@@H]3[C@H](C2)[C@@]3(CNC(=O)c2c(Cl)cccc2Cl)CC2CC2)c1
IC50 [1]: 0.028 µM
Kp ([2]; brain): 0.5
inhibition [17]: Active
Fu (Plasma [5]): 8%

O=C(NC[C@]1(CC2CC2)[C@@H]2CN(S(=O)(=O)c3ccccc3)C[C@@H]21)c1ccc(Cl)cc1Cl
IC50 [1]: > 10 µM
IC50 [4]: > 30 µM

CCS(=O)(=O)N1CCC(CNC(=O)c2ccc(Cl)cc2Cl)(CC2CC2)CC1
inhibition (Rattus norvegicus [7]): Active
IC50 (Cytochrome P450 3A4): > 10 µM
IC50 (Cytochrome P450 2C9): > 10 µM
Activity (Rattus norvegicus [16]): Non-toxic

CN1C[C@@H]2[C@H](C1)[C@H]2CN(Cc1ccc(Cl)c(F)c1)C(=O)c1cn(C)cn1
IC50 (Cytochrome P450 3A4): > 10 µM
IC50 (Cytochrome P450 2C9): > 10 µM

CCS(=O)(=O)N1C[C@@H]2[C@H](C1)[C@@]2(CNC(=O)c1ccc(Cl)cc1Cl)CC1CC1
IC50 [1]: 1.3 µM
IC50 [4]: > 30 µM

Cn1cnc(S(=O)(=O)N2C[C@@H]3[C@H](C2)[C@@]3(CNC(=O)c2cccc(C(F)(F)F)c2)CC2CC2)c1
IC50 [1]: 0.064 µM
Kp ([2]; brain and plasma, read-out: Kp): 0.7
Fu (Plasma [5]): 4%

CC(C)CS(=O)(=O)N1C[C@@H]2[C@H](C1)[C@@]2(CNC(=O)c1ccc(Cl)cc1Cl)CC1CC1
IC50 [1]: 2.9 µM
IC50 [4]: > 30 µM

CCCS(=O)(=O)N1CCC(c2ccccc2)([C@H](C)NC(=O)c2ccc(Cl)cc2Cl)CC1
IC50 [1]: 0.0024 µM
IC50 (Cytochrome P450 3A4): > 10 µM
IC50 (Cytochrome P450 2C9): > 10 µM

O=C(NC[C@]1(CC2CC2)[C@@H]2CN(S(=O)(=O)CC3CC3)C[C@@H]21)c1ccc(Cl)cc1Cl
IC50 [1]: 0.23 µM
IC50 [4]: > 30 µM

NCC(=O)O [GLYCINE]
IC50 [1]: 31.6 µM
